Source: paper PMC3656107, “Polymorphisms in the F8 Gene and MHC-II Variants as Risk Factors for the Development of Inhibitory Anti-Factor VIII Antibodies during the Treatment of Hemophilia A: A Computational Assessment” (PLoS Computational Biology, 2013)

Experiments:
MHC-II DRB1*15:03 [1] = target: T1, MHC-II DRB1*15:03 (Homo sapiens, UniProt P01903+P01911, Y59H); assay: Cell-free REVEAL class II binding assay; conditions: signal of test peptide as percentage of allele-specific positive control peptide, fluorescence, conformation-specific monoclonal antibody
T1 construct: purchased ProImmune
T1 sequence (P01903 26-254, other chains not shown): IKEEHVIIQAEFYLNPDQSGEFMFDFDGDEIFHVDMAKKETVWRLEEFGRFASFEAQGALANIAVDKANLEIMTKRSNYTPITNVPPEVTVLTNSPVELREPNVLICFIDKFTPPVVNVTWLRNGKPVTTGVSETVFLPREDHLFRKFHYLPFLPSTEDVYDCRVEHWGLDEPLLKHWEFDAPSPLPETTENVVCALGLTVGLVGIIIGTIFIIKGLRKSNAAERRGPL
Excerpt: (§1) We used a proprietary high throughput, REVEAL binding assay (ProImmune, www.proimmune.com) to estimate the binding of individual test peptides to the following MHC-II variants: DRB1*03:01, DRB1*04:01, DRB1*07:01, DRB1*11:01, DRB1*15:01 and DRB1*15:03 [28]. Detection of a peptide binding to each MHC-II protein is based on the presence or absence of the native conformation of the MHC-peptide complex. The peptide-MHC-II complex is detected by an increase in a fluorescence signal due to the binding of a specific monoclonal antibody. Each test-peptide is given a score relative to a positive control peptide, which is a known T-cell epitope for that MHC-II molecule. The score is reported quantitatively as a percentage of the signal generated by the test peptide compared with the positive control peptide. Assay performance is evaluated by including in each set of measurements an intermediate control peptide which is known to bind the MHC-II molecule but with a lower affinity than the positive control peptide. Note that the positive control peptide used to determine the binding score is different from the positive control peptides depicted in the figures, which are known T-cell epitopes identified in the FVIII molecule.

MHC-II DRB1*07:01 [2] = target: T2, MHC-II DRB1*07:01 (Homo sapiens, UniProt P01903+P01911, A100R/A102G/A103Q/D57E/D86V/E43K/F76Y/K127E/L162R/M171V/P40G/Q125H/Q99D/R33Q/R42Y/R54Q/S133A/S66F/T210M/V115G/Y107V/Y59L/Y89S); assay: Cell-free REVEAL class II binding assay; conditions: signal of test peptide as percentage of allele-specific positive control peptide, fluorescence, conformation-specific monoclonal antibody
Excerpt: as §1

MHC-II DRB1*03:01 [3] = target: T3, MHC-II DRB1*03:01 (Homo sapiens, UniProt P01903+P01911, A100K/A102G/A103R/A169T/F55Y/I96L/K41T/L162R/M171V/P40S/Q125H/Q178H/Q39Y/R42S/S66N/T106N/T262R/W38E/Y61H); assay: Cell-free REVEAL class II binding assay; conditions: signal of test peptide as percentage of allele-specific positive control peptide, fluorescence, conformation-specific monoclonal antibody
T3 sequence (P01903 26-254 limits assumed, other chains not shown): as the sequence (P01903 26-254, other chains not shown) above
Excerpt: as §1

MHC-II DRB1*11:01 [4] = target: T4, MHC-II DRB1*11:01 (Homo sapiens, UniProt P01903+P01911, A100R/A169T/A87E/I96F/K41T/L162R/M171V/P40S/Q125H/Q178H/Q39Y/Q99D/R42S/S66Y/T262R/V115G/W38E); assay: Cell-free REVEAL class II binding assay; conditions: signal of test peptide as percentage of allele-specific positive control peptide, fluorescence, conformation-specific monoclonal antibody
T4 sequence (P01903 26-254 limits assumed, other chains not shown): as the sequence (P01903 26-254, other chains not shown) above
Excerpt: as §1

MHC-II DRB1*15:01 [5] = target: T5, MHC-II DRB1*15:01 (Homo sapiens, UniProt P01903+P01911); assay: Cell-free REVEAL class II binding assay; conditions: signal of test peptide as percentage of allele-specific positive control peptide, fluorescence, conformation-specific monoclonal antibody
T5 construct: purchased ProImmune
Excerpt: as §1

MHC-II DRB1*04:01 [6] = target: T6, MHC-II DRB1*04:01 (Homo sapiens, UniProt P01903+P01911, A100K/A169T/F76Y/I96L/K127E/L162R/M171V/N62H/P40V/Q125Y/R42H/S133A/S149N/S66Y/V115G/V209L/W38E); assay: Cell-free REVEAL class II binding assay; conditions: signal of test peptide as percentage of allele-specific positive control peptide, fluorescence, conformation-specific monoclonal antibody
Excerpt: as §1

MHC-II DRB1*15:03 [7] = target: T1, MHC-II DRB1*15:03; assay: Cell-free REVEAL class II stability assay; conditions: half-life of peptide-MHC-II complex (h, capped at 120) x Binding Score / 100, conformational ELISA
Description: (§2) We measured the half-life of each peptide-MHC-II complex using REVEAL peptide-MHC affinity assays developed by ProImmune Ltd. (Oxford, UK). On-rates of peptides were measured over a 96-hr period at 10°C. A unique positive control peptide was used for each MHC-II allele. Samples of assembling peptide-MHC complexes were taken at defined time points and snap-frozen in liquid nitrogen prior to analysis. Assembly of peptide-MHC complexes was detected using a conformational ELISA involving an anti-HLA antibody. On-rates were calculated by fitting data to a one-phase association curve: [drawing 1] To determine the off-rates of the peptides, samples of dissociating complexes were taken at defined time points and frozen in liquid nitrogen prior to analysis. Percent denaturation of peptide-MHC complexes was also detected using a conformational ELISA. Off-rates were calculated by fitting data to a one-phase dissociation curve: [drawing 2] On- and off-rate half-life values (t1/2) were calculated from the rate constant (k) using the following equation: [drawing 3] To obtain a normalized stability score, the half-life values were multiplied by the Binding Score (see above) and divided by 100.

MHC-II DRB1*07:01 [8] = target: T2, MHC-II DRB1*07:01; assay: Cell-free REVEAL class II stability assay; conditions: half-life of peptide-MHC-II complex (h, capped at 120) x Binding Score / 100, conformational ELISA
Description: as §2

MHC-II DRB1*03:01 [9] = target: T3, MHC-II DRB1*03:01; assay: Cell-free REVEAL class II stability assay; conditions: half-life of peptide-MHC-II complex (h, capped at 120) x Binding Score / 100, conformational ELISA
Description: as §2

MHC-II DRB1*11:01 [10] = target: T4, MHC-II DRB1*11:01; assay: Cell-free REVEAL class II stability assay; conditions: half-life of peptide-MHC-II complex (h, capped at 120) x Binding Score / 100, conformational ELISA
Description: as §2

MHC-II DRB1*15:01 [11] = target: T5, MHC-II DRB1*15:01; assay: Cell-free REVEAL class II stability assay; conditions: half-life of peptide-MHC-II complex (h, capped at 120) x Binding Score / 100, conformational ELISA
Description: as §2

MHC-II DRB1*04:01 [12] = target: T6, MHC-II DRB1*04:01; assay: Cell-free REVEAL class II stability assay; conditions: half-life of peptide-MHC-II complex (h, capped at 120) x Binding Score / 100, conformational ELISA
Description: as §2

Sequence | Binding Score (MHC-II DRB1*15:03 [1]) [%] | Binding Score (MHC-II DRB1*07:01 [2]) [%] | Binding Score (MHC-II DRB1*03:01 [3]) [%] | Binding Score (MHC-II DRB1*11:01 [4]) [%] | Binding Score (MHC-II DRB1*15:01 [5]) [%] | Binding Score (MHC-II DRB1*04:01 [6]) [%] | Stability Index (MHC-II DRB1*15:03 [7]) | Stability Index (MHC-II DRB1*07:01 [8]) | Stability Index (MHC-II DRB1*03:01 [9]) | Stability Index (MHC-II DRB1*11:01 [10]) | Stability Index (MHC-II DRB1*15:01 [11]) | Stability Index (MHC-II DRB1*04:01 [12])
QKFSSLYISQFIIMY [synthetic wild type FVIII 15 mer peptide] | 0.0 | 0.0 | 0.5 | 0.4 | 22.9 | 1.9 | 0.0 | 0.0 | 0.1 | 0.0 | 27.5 | 0.2
HKMVYEDTLTLFPFS [synthetic wild type FVIII 15 mer peptide] | 0.1 | 0.0 | 56.5 | 5.4 | 2.4 | 24.2 | 0.1 | 0.0 | 14.2 | 0.2 | 2.9 | 5.5
YNIYPHGITDVRPLY [synthetic wild type FVIII 15 mer peptide, region of ns-SNP R484H] | 0.1 | 0.1 | 0.2 | 35.8 | 40.8 | 2.1 | 0.1 | 0.1 | 0.0 | 1.1 | 2.0 | 0.2
PWFAHRTPMPKIQNV [synthetic wild type FVIII 15 mer peptide, region of ns-SNP R776G] | 0.2 | 2.7 | 0.1 | 4.9 | 4.7 | 6.4 | 0.0 | 3.2 | 0.1 | 0.5 | 0.4 | 0.8
RQNVEGSYDGAYAPV [synthetic wild type FVIII 15 mer peptide, region of ns-SNP D1241E] | 0.0 | 0.0 | 0.0 | 0.1 | 0.0 | 0.0 | 0.0 | 0.0 | 0.0 | 0.0 | 0.0 | 0.0
PENDIEKTDPWFAHR [synthetic wild type FVIII 15 mer peptide, region of ns-SNP R776G] | 0.3 | 0.0 | 0.0 | 2.9 | 0.1 | 0.7 | 0.0 | 0.0 | 0.0 | 0.1 | 0.1 | 0.1
LFLLSTRQNVEGSYD [synthetic wild type FVIII 15 mer peptide, region of ns-SNP D1241E] | 0.2 | 0.3 | 30.5 | 92.0 | 1.0 | 17.9 | 0.0 | 0.3 | 17.5 | 23.6 | 0.1 | 2.8
KTDPWFAHRTPMPKI [synthetic wild type FVIII 15 mer peptide, region of ns-SNP R776G] | 0.2 | 4.0 | 0.0 | 0.5 | 0.1 | 8.2 | 0.0 | 1.2 | 0.0 | 0.1 | 0.1 | 0.5

The remaining lines, values ahead:

Binding Score (MHC-II DRB1*15:03 [1]) [%] | Binding Score (MHC-II DRB1*07:01 [2]) [%] | Binding Score (MHC-II DRB1*03:01 [3]) [%] | Binding Score (MHC-II DRB1*11:01 [4]) [%] | Binding Score (MHC-II DRB1*15:01 [5]) [%] | Binding Score (MHC-II DRB1*04:01 [6]) [%] | Stability Index (MHC-II DRB1*15:03 [7]) | Stability Index (MHC-II DRB1*07:01 [8]) | Stability Index (MHC-II DRB1*03:01 [9]) | Stability Index (MHC-II DRB1*11:01 [10]) | Stability Index (MHC-II DRB1*15:01 [11]) | Stability Index (MHC-II DRB1*04:01 [12]) | Sequence
0.0 | 0.0 | 0.0 | 0.1 | 0.1 | 0.0 | 0.0 | 0.0 | 0.0 | 0.0 | 0.2 | 0.0 | PQVNNPKEWLQVDFQ [synthetic wild type FVIII 15 mer peptide]
0.4 | 0.0 | 0.0 | 0.1 | 41.4 | 7.3 | 0.0 | 0.0 | 0.0 | 0.0 | 2.3 | 0.6 | TLTLFPFSGETVFMS [synthetic wild type FVIII 15 mer peptide]
1.4 | 2.1 | 0.0 | 74.9 | 8.3 | 54.3 | 0.1 | 2.6 | 0.0 | 4.5 | 10.0 | 12.6 | RIHPQSWVHQIALRM [synthetic wild type FVIII 15 mer peptide]
26.8 | 0.0 | 12.6 | 23.1 | 37.9 | 0.8 | 1.6 | 0.0 | 2.4 | 0.8 | 45.5 | 0.1 | TKSDPRCLTRYYSSF [synthetic wild type FVIII 15 mer peptide]
